Experimental data as given in patent US20140128605A1, “CRYSTALS OF GLYCINE DERIVATIVE AND PHARMACEUTICAL USE THEREOF” (Toray Industries, Inc., priority 2011, published 2014).

Assays:
Assay type in all cases: physicochemical
[1] = Evaluation of solid-state stability (60° C., four weeks, air-tightly); settings: for Purity [%] Initial value / Purity [%] After 4 weeks: HPLC; for Purity [%] Initial value: before storage; for Purity [%] After 4 weeks / Decomposition product increased by not less than 0.15% after 4 weeks / Crystal form after 4 weeks: stored air-tightly at 60° C. for four weeks; for Crystal form after 4 weeks: powder X-ray diffraction and TG-DTA
Description: The amorphous form, and the crystals of Form A, Form B, Form C, Form D and Form E (hydrate) of the subject compound were stored air-tightly at 60° C. for four weeks, and the purities thereof before and after the storage were measured by high performance liquid chromatography (hereinafter referred to as “HPLC”) under the following conditions. The powder X-ray diffraction measurement and TG-DTA were carried out to evaluate whether the crystal forms were changed or not due to the storage. Aqueous sodium dihydrogen phosphate solution in a concentration of 20 mmol/L (hereinafter referred to as “aqueous SDP solution”) used to prepare a mobile phase of HPLC was prepared by adding distilled water (3 L) to weighed sodium dihydrogen phosphate dihydrate (9.36 g) and stirring the resulting solution to dissolve the dihydrate. An analytical sample of HPLC was prepared by weighing and adding each crystal (1.75 mg) of the subject compound to a 10-mL measuring flask respectively; adding acetonitrile (2 mL) thereto to dissolve the crystal; and then adding aqueous SDP solution thereto to a total volume of 10 mL.
• Detection Wavelength: 210 nm • Column: YMC-Pack Pro C18 AS-303 • Mobile Phase A: aqueous SDP solution/acetonitrile=80:20 (v/v) • Mobile Phase B: acetonitrile/aqueous SDP solution=70:30 (v/v) • Composition of Mobile Phase B: 0 to 60 minutes: 0→100% • 60 to 65 minutes: 100%, • 65 to 66 minutes: 100→0%, • 66 to 75 minutes: 0% • Flow rate: 1.0 mL/min • Column Temperature: 40° C. • Amount of Injected Sample: 20 μL

[2] = Evaluation of moisture absorption (equilibrium moisture regain); settings: for Weight increase: relative humidity increased from 5% to 95%, 25° C.
Description: • Sample Amount: 5 to 12 mg • Measuring Temperature: 25° C. • Equilibrium Weight/time: 0.01 wt %/5 minutes • Maximum Equilibration Time: 180 minutes • Measurement Range: 5% relative humidity-95% relative humidity-5% relative humidity • Measurement Interval: 5% relative humidity
To evaluate whether the crystal form changes or not, the powder X-ray diffraction measurement was carried out for each crystal of Form A, Form B, Form C, Form D and Form E (hydrate) obtained after the evaluation test of moisture absorption. Only for the Form A crystal, the measurement range (2θ) of the powder X-ray diffraction measurement was changed to 2 to 35°, and the measurement was carried out at 25° C., 90% relative humidity. A humidity generator (HUM-1A; manufactured by Rigaku) was used to control humidity.

[3] = Storage stability test (accelerated testing) of Form C crystal; settings: 40° C., 75% relative humidity; for Purity [%] Initial value: HPLC, before storage, 6 months column
Description: The Form C crystals of the subject compound were stored under acceleration conditions (40° C., 75% relative humidity) air-tightly or under open conditions for six months, and the purities of the crystals before and after the storage were measured by HPLC under conditions below. The powder X-ray diffraction measurement and TG-DTA were carried out to evaluate whether the crystal form was changed or not due to storage.
Phosphate buffer in a concentration of 20 mmol/L (pH 3.9) (hereinafter referred to as “Buffer X”) used to prepare a mobile phase of HPLC was prepared by adding 20 mmol/L of aqueous phosphoric acid solution to 20 mmol/L of aqueous potassium dihydrogen phosphate solution. 20 mmol/L of the aqueous potassium dihydrogen phosphate solution was prepared by adding the weighed potassium dihydrogen phosphate (8.2 g) to distilled water (3 L), and stirring the resulting solution to dissolve the phosphate, and 20 mmol/L of the aqueous phosphoric acid solution was prepared by adding phosphoric acid (1.4 mL) to distilled water (1 L), and mixing the resulting solution under stirring.
Phosphate buffer in a concentration of 20 mmol/L (pH 7.0) (hereinafter referred to as “Buffer Y”) used to prepare an analytical sample of HPLC was prepared by adding 20 mmol/L of aqueous phosphoric acid solution to 20 mmol/L of aqueous dipotassium hydrogen phosphate solution. 20 mmol/L of aqueous dipotassium hydrogen phosphate solution was prepared by adding the weighed dipotassium hydrogen phosphate (3.5 g) to distilled water (1 L), and stirring the resulting solution.
Further, the analytical sample of HPLC was prepared by weighing and adding the Form C crystals of the subject compound (10 mg) to a 50-mL measuring flask, and adding a mixture of Buffer Y and acetonitrile at a ratio of 80:20 to a total amount of 50 mL.
• Detection Wavelength: 210 nm • Column: YMC-Pack Pro C18 • AS12S05-2546WT • Mobile Phase A: buffer X/acetonitrile=80:20 (v/v) • Mobile Phase B: acetonitrile/buffer X=70:30 (v/v) • Composition of Mobile Phase B: 0 to 80 minutes: 0→100% • 80 to 85 minutes: 100% • 85 to 86 minutes: 100→0% • 86 to 95 minutes: 0% • Flow Rate: 1.0 mL/min • Column Temperature: 40° C. • Amount of Injected Sample: 20 μL

[4] = Physical stability of crystal form in solvents; settings: solvents (e.g., toluene, methanol, 2-propanol)
[5] = Crystal form after milling (powder X-ray diffraction, TG-DTA); settings: pin milled and jet milled products

Purity [%] Initial value [1] [%]	Purity [%] After 4 weeks [1] [%]	Decomposition product increased by not less than 0.15% after 4 weeks [1]	Crystal form after 4 weeks [1]	Change in crystal form ([2]; powder X-ray diffraction after the moisture absorption test)	Weight increase [2] [%]	Crystal form after 6 months ([3]; air-tightly)	Decomposition product increased by not less than 0.15% after 6 months ([3]; air-tightly)	Purity [%] After 6 months ([3]; air-tightly) [%]	Crystal form after 6 months ([3]; open condition)	Decomposition product increased by not less than 0.15% after 6 months ([3]; open condition)	Purity [%] After 6 months ([3]; open condition) [%]	Purity [%] Initial value ([3]; air-tightly) [%]	Purity [%] Initial value ([3]; open condition) [%]	Transfer of crystal form in solvents [4]	Change in the crystal form due to milling [5]	SMILES
98.9	98.9	nothing	Form C	–	–	Form C	Nothing	99.5	Form C	Nothing	99.4	99.5	99.5	not transferred to the another form	no change in the crystal form	CN(c1ccc(/C=C/C[C@H](NC(=O)c2c(Cl)cccc2Cl)C(=O)O)cc1)c1ncccn1 [Form C, (S,E)-2-(2,6-dichlorobenzamido)-5-[4-(methyl-pyrimidin-2-ylamino)phenyl]pent-4-enoic acid]
98.0	98.0	nothing	Mixed crystals^2)	–	1.0	–	–	–	–	–	–	–	–	–	–	CN(c1ccc(/C=C/C[C@H](NC(=O)c2c(Cl)cccc2Cl)C(=O)O)cc1)c1ncccn1 [Form D, (S,E)-2-(2,6-dichlorobenzamido)-5-[4-(methyl-pyrimidin-2-ylamino)phenyl]pent-4-enoic acid]
96.6	96.9	nothing	Form E	–	0.4	–	–	–	–	–	–	–	–	–	–	CN(c1ccc(/C=C/C[C@H](NC(=O)c2c(Cl)cccc2Cl)C(=O)O)cc1)c1ncccn1 [Form E, (S,E)-2-(2,6-dichlorobenzamido)-5-[4-(methyl-pyrimidin-2-ylamino)phenyl]pent-4-enoic acid]

Second part, the compound before the results:

SMILES	Purity [%] Initial value [1] [%]	Purity [%] After 4 weeks [1] [%]	Decomposition product increased by not less than 0.15% after 4 weeks [1]	Crystal form after 4 weeks [1]	Change in crystal form ([2]; powder X-ray diffraction after the moisture absorption test)	Weight increase [2] [%]	Crystal form after 6 months ([3]; air-tightly)	Decomposition product increased by not less than 0.15% after 6 months ([3]; air-tightly)	Purity [%] After 6 months ([3]; air-tightly) [%]	Crystal form after 6 months ([3]; open condition)	Decomposition product increased by not less than 0.15% after 6 months ([3]; open condition)	Purity [%] After 6 months ([3]; open condition) [%]	Purity [%] Initial value ([3]; air-tightly) [%]	Purity [%] Initial value ([3]; open condition) [%]	Transfer of crystal form in solvents [4]	Change in the crystal form due to milling [5]
CN(c1ccc(/C=C/C[C@H](NC(=O)c2c(Cl)cccc2Cl)C(=O)O)cc1)c1ncccn1 [Amorphous, (S,E)-2-(2,6-dichlorobenzamido)-5-[4-(methyl-pyrimidin-2-ylamino)phenyl]pent-4-enoic acid]	95.8	92.0	8 different	Amorphous	–	–	–	–	–	–	–	–	–	–	–	–
CN(c1ccc(/C=C/C[C@H](NC(=O)c2c(Cl)cccc2Cl)C(=O)O)cc1)c1ncccn1 [Form A, (S,E)-2-(2,6-dichlorobenzamido)-5-[4-(methyl-pyrimidin-2-ylamino)phenyl]pent-4-enoic acid]	97.3	97.5	nothing	Form B	changed^2)	3.4	–	–	–	–	–	–	–	–	–	–
CN(c1ccc(/C=C/C[C@H](NC(=O)c2c(Cl)cccc2Cl)C(=O)O)cc1)c1ncccn1 [Form B, (S,E)-2-(2,6-dichlorobenzamido)-5-[4-(methyl-pyrimidin-2-ylamino)phenyl]pent-4-enoic acid]	99.8	99.8	nothing	Form B	–	1.9	–	–	–	–	–	–	–	–	–	–
